The source of these data is patent publication US9845322B2 (Hoffmann-La Roche Inc., priority 2016, dated 2017).

For orientation: IC50 means the concentration needed to halve the response being measured.

The first assay deals with HBsAg secretion in HepG2.2.15 cells. As to the kind of experiment: HBsAg assay (chemiluminescence immunoassay of secreted HBsAg in culture supernatant). Conditions: HepG2.2.15 cells; concentration at which HBsAg secretion was reduced by 50% compared to the no drug control; read-out: IC50 (HBsAg assay). It is filed as cell-based, HBV. In short, it runs like this:
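HepG2.2.15 cells (1.5×10^4/well, duplicate) treated with three-fold compound dilutions, 1% DMSO final, DMSO as no-drug control. Secreted HBsAg in supernatant quantified semi-quantitatively by chemiluminescence immunoassay; IC50 is concentration reducing HBsAg 50% versus no-drug control.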
Take `COCCOc1cc(N2CCc3nc(-c4ccccn4)ncc3C2C)cc(F)c1F` (single isomer, unassigned; (+)) [Example 20, (+)-6-[3,4-difluoro-5-(2-methoxyethoxy)phenyl]-5-methyl-2-(2-pyridyl)-7,8-dihydro-5H-pyrido[4,3-d]pyrimidine]: the IC50 amounted to 5010 nM.
The same measure, in the same setting: to `CC1c2cnc(-c3ncccn3)nc2CCN1c1cc(F)c(F)c(OCCCCCCN)c1` (single isomer, unassigned; (+)) [Example 61, (+)-6-[2,3-difluoro-5-[5-methyl-2-pyrimidin-2-yl-7,8-dihydro-5H-pyrido[4,3-d]pyrimidin-6-yl]phenoxy]hexan-1-amine] belongs 3320 nM.
`CC1c2cnc(-c3ncccn3)nc2CCN1c1cc(N(C)C)cc(F)n1` (stereo not shown) [Example 196, 2-fluoro-N,N-dimethyl-6-(5-methyl-2-pyrimidin-2-yl-7,8-dihydro-5H-pyrido[4,3-d]pyrimidin-6-yl)pyridin-4-amine]: the IC50 came out at 2 nM.

Staying with this assay, now noted: Hepatitis B virus, HepG2.2.15, HepG2.2.15 cells; concentration at which HBsAg secretion was reduced by 50% compared to the no drug control; read-out: IC50 (HBsAg assay).
Take `CC1c2cnc(-c3ccccn3)nc2CCN1c1cc(F)c(F)c(OCC(=O)N(C)C)c1` (stereo not shown) [Example 30, 2-[2,3-difluoro-5-[5-methyl-2-(2-pyridyl)-7,8-dihydro-5H-pyrido[4,3-d]pyrimidin-6-yl]phenoxy]-N,N-dimethyl-acetamide]: the IC50 was 96 nM.
With `COc1cc(N2CCc3nc(-c4ncccn4)ncc3C2C)nc(F)c1I` (stereo not shown) [Example 128, 6-(6-fluoro-5-iodo-4-methoxy-2-pyridyl)-5-methyl-2-pyrimidin-2-yl-7,8-dihydro-5H-pyrido[4,3-d]pyrimidine], the IC50 is 5 nM.
Same read-out and setting: to `CC1c2cnc(-c3ccccn3)nc2CCN1c1cc(N2CCOCC2)cc(F)n1` (stereo not shown) [Example 220, 4-[2-fluoro-6-[5-methyl-2-(2-pyridyl)-7,8-dihydro-5H-pyrido[4,3-d]pyrimidin-6-yl]-4-pyridyl]morpholine] belongs 21 nM; to `CC1c2cnc(-c3ccccn3)nc2CCN1c1cc(N2CCCCC2)cc(F)n1` (stereo not shown) [Example 218, 6-(6-fluoro-4-(piperidin-1-yl)pyridin-2-yl)-5-methyl-2-(pyridin-2-yl)-5,6,7,8-tetrahydropyrido[4,3-d]pyrimidine], 22 nM.
Still for that read-out and setting: the result for `CC1c2cnc(-c3ccccn3)nc2CCN1c1cc(OCC(F)F)cc(F)n1` (stereo not shown) [Example 192, 6-[4-(2,2-difluoroethoxy)-6-fluoro-2-pyridyl]-5-methyl-2-(2-pyridyl)-7,8-dihydro-5H-pyrido[4,3-d]pyrimidine] reads 30 nM; that for `COC(=O)c1cc(F)cc(N2CCc3nc(-c4ncccn4)ncc3C2C)c1` (stereo not shown) [Example 175, methyl 3-fluoro-5-(5-methyl-2-pyrimidin-2-yl-7,8-dihydro-5H-pyrido[4,3-d]pyrimidin-6-yl)benzoate], 1460 nM; that for `CC1c2cnc(-c3ncccn3)nc2CCN1c1cc(F)c(F)c(OCCCS(=O)(=O)O)c1` (stereo not shown) [Example 78, 3-[2,3-difluoro-5-(5-methyl-2-pyrimidin-2-yl-7,8-dihydro-5H-pyrido[4,3-d]pyrimidin-6-yl)phenoxy]propane-1-sulfonic acid], 976 nM.
Regarding `CC1c2cnc(-c3ncccn3)nc2CCN1c1cc(OCC2CCOC2)cc(F)n1` (stereo not shown) [Example 154, 6-[6-fluoro-4-(tetrahydrofuran-3-ylmethoxy)-2-pyridyl]-5-methyl-2-pyrimidin-2-yl-7,8-dihydro-5H-pyrido[4,3-d]pyrimidine], the IC50 was determined as 7 nM.
`CC1c2cnc(-c3ccccn3)nc2CCN1c1cc(F)c(F)c(OCCS(C)(=O)=O)c1` (stereo not shown) [Example 26, 6-[3,4-difluoro-5-(2-methylsulfonylethoxy)phenyl]-5-methyl-2-(2-pyridyl)-7,8-dihydro-5H-pyrido[4,3-d]pyrimidine]: the IC50 was determined as 78 nM.
On the same count and under the same terms, to `CC1c2cnc(-c3ncccn3)nc2CCN1c1cc(F)c(F)c(OCCC(NC(=O)OC(C)(C)C)C(=O)O)c1` (stereo not shown) [Example 103, 2-(tert-butoxycarbonylamino)-4-[2,3-difluoro-5-(5-methyl-2-pyrimidin-2-yl-7,8-dihydro-5H-pyrido[4,3-d]pyrimidin-6-yl)phenoxy]butanoic acid] belongs 2160 nM.
